According to article PMC8854719, “Phase 1A/1B dose-escalation and -expansion study to evaluate the safety, pharmacokinetics, food effects and antitumor activity of pamiparib in advanced solid tumours” (British Journal of Cancer, 2021):

Assay: Safety and tolerability: adverse events, dose-limiting toxicities, MTD, RP2D (Phase 1A/1B)
Assay type: in vivo
Protocol: This was an open-label, Phase 1, dose-escalation/dose-expansion study, conducted across six study centres in Australia. The dose-escalation phase evaluated twice-daily (BID) and once-daily (QD) dosing, and the dose-expansion phase evaluated the BID RP2D from the dose-escalation phase and food effects (Fig. 1). The food-effects cohort comprised two sequences: fast followed by fed (sequence 1) and fed followed by fast (sequence 2). […] The decision to proceed to the next dose cohort was determined by the Safety Monitoring Committee and followed a modified 3 + 3 escalation scheme. […] When ≥2 DLTs occurred in the first 23 days of a dose level, the next lower dose level was declared the MTD. Safety was monitored and DLTs were assessed in all dose cohorts. […] The food-effects cohort investigated the effects of food on the PK of pamiparib in patients with advanced solid tumours.
The QD dosing regimen was added as an amendment to the protocol with the purpose of exploring the feasibility of a more convenient regimen.
Safety and tolerability were assessed throughout the study by monitoring adverse events (AEs), serious AEs, clinical laboratory measurements and physical examinations. Adverse events were categorised according to their severity (National Cancer Institute Common Terminology Criteria for Adverse Events v4.03) and relationship to the study treatment.

C[C@]12CCCN1CC1=NNC(=O)c3cc(F)cc4[nH]c2c1c34 [pamiparib]
Abdominal pain, AE of any grade (2.5 mg BID (n = 4)): 1 (25.0) n (%) | Anaemia, AE of any grade (2.5 mg BID (n = 4)): 1 (25.0) n (%) | Ascites, AE of any grade (2.5 mg BID (n = 4)): 1 (25.0) n (%) | Back pain, AE of any grade (2.5 mg BID (n = 4)): 0 (0.0) n (%) | Constipation, AE of any grade (2.5 mg BID (n = 4)): 1 (25.0) n (%) | Cough, AE of any grade (2.5 mg BID (n = 4)): 0 (0.0) n (%) | Decreased appetite, AE of any grade (2.5 mg BID (n = 4)): 0 (0.0) n (%) | Diarrhoea, AE of any grade (2.5 mg BID (n = 4)): 0 (0.0) n (%) | Dose-limiting toxicity (2.5 mg BID (n = 4)): 0 (0.0) n (%) | Dyspnoea, AE of any grade (2.5 mg BID (n = 4)): 0 (0.0) n (%) | Fatigue, AE of any grade (2.5 mg BID (n = 4)): 1 (25.0) n (%) | Headache, AE of any grade (2.5 mg BID (n = 4)): 0 (0.0) n (%) | Hypoalbuminemia, AE of any grade (2.5 mg BID (n = 4)): 1 (25.0) n (%) | Hypomagnesemia, AE of any grade (2.5 mg BID (n = 4)): 0 (0.0) n (%) | Hypophosphatemia, AE of any grade (2.5 mg BID (n = 4)): 0 (0.0) n (%) | Increased AST, AE of any grade (2.5 mg BID (n = 4)): 0 (0.0) n (%) | Muscle spasms, AE of any grade (2.5 mg BID (n = 4)): 1 (25.0) n (%) | Nausea, AE of any grade (2.5 mg BID (n = 4)): 3 (75.0) n (%) | Neutropenia, AE of any grade (2.5 mg BID (n = 4)): 0 (0.0) n (%) | Non-cardiac chest pain, AE of any grade (2.5 mg BID (n = 4)): 0 (0.0) n (%) | Pain in extremity, AE of any grade (2.5 mg BID (n = 4)): 0 (0.0) n (%) | Peripheral sensory neuropathy, AE of any grade (2.5 mg BID (n = 4)): 0 (0.0) n (%) | Pleural effusion, AE of any grade (2.5 mg BID (n = 4)): 0 (0.0) n (%) | Pyrexia, AE of any grade (2.5 mg BID (n = 4)): 1 (25.0) n (%) | Treatment-emergent AE (2.5 mg BID (n = 4)): 4 (100.0) n (%) | Treatment-emergent AE: Grade 3 or higher (2.5 mg BID (n = 4)): 3 (75.0) n (%) | Treatment-emergent AE: Leading to death (2.5 mg BID (n = 4)): 0 (0.0) n (%) | Treatment-emergent AE: Leading to dose interruption (2.5 mg BID (n = 4)): 1 (25.0) n (%) | Treatment-emergent AE: Leading to dose modification (2.5 mg BID (n = 4)): 1 (25.0) n (%) | Treatment-emergent AE: Leading to dose reduction (2.5 mg BID (n = 4)): 0 (0.0) n (%) | Treatment-emergent AE: Leading to treatment discontinuation (2.5 mg BID (n = 4)): 0 (0.0) n (%) | Treatment-emergent AE: Serious (2.5 mg BID (n = 4)): 3 (75.0) n (%) | Treatment-related AE (2.5 mg BID (n = 4)): 3 (75.0) n (%) | Treatment-related AE: Grade 3 or higher (2.5 mg BID (n = 4)): 0 (0.0) n (%) | Treatment-related AE: Leading to death (2.5 mg BID (n = 4)): 0 (0.0) n (%) | Treatment-related AE: Leading to dose interruption (2.5 mg BID (n = 4)): 0 (0.0) n (%) | Treatment-related AE: Leading to dose modification (2.5 mg BID (n = 4)): 0 (0.0) n (%) | Treatment-related AE: Leading to dose reduction (2.5 mg BID (n = 4)): 0 (0.0) n (%) | Treatment-related AE: Leading to treatment discontinuation (2.5 mg BID (n = 4)): 0 (0.0) n (%) | Treatment-related AE: Serious (2.5 mg BID (n = 4)): 0 (0.0) n (%) | Upper respiratory tract infection, AE of any grade (2.5 mg BID (n = 4)): 1 (25.0) n (%) | Urinary tract infection, AE of any grade (2.5 mg BID (n = 4)): 0 (0.0) n (%) | Vomiting, AE of any grade (2.5 mg BID (n = 4)): 1 (25.0) n (%) | Abdominal pain, AE of any grade (5.0 mg BID (n = 3)): 0 (0.0) n (%) | Anaemia, AE of any grade (5.0 mg BID (n = 3)): 0 (0.0) n (%) | Ascites, AE of any grade (5.0 mg BID (n = 3)): 0 (0.0) n (%) | Back pain, AE of any grade (5.0 mg BID (n = 3)): 0 (0.0) n (%) | Constipation, AE of any grade (5.0 mg BID (n = 3)): 0 (0.0) n (%) | Cough, AE of any grade (5.0 mg BID (n = 3)): 0 (0.0) n (%) | Decreased appetite, AE of any grade (5.0 mg BID (n = 3)): 0 (0.0) n (%) | Diarrhoea, AE of any grade (5.0 mg BID (n = 3)): 1 (33.3) n (%) | Dose-limiting toxicity (5.0 mg BID (n = 3)): 0 (0.0) n (%) | Dyspnoea, AE of any grade (5.0 mg BID (n = 3)): 0 (0.0) n (%) | Fatigue, AE of any grade (5.0 mg BID (n = 3)): 1 (33.3) n (%) | Headache, AE of any grade (5.0 mg BID (n = 3)): 1 (33.3) n (%) | Hypoalbuminemia, AE of any grade (5.0 mg BID (n = 3)): 0 (0.0) n (%) | Hypomagnesemia, AE of any grade (5.0 mg BID (n = 3)): 0 (0.0) n (%) | Hypophosphatemia, AE of any grade (5.0 mg BID (n = 3)): 0 (0.0) n (%) | Increased AST, AE of any grade (5.0 mg BID (n = 3)): 0 (0.0) n (%) | Muscle spasms, AE of any grade (5.0 mg BID (n = 3)): 1 (33.3) n (%) | Nausea, AE of any grade (5.0 mg BID (n = 3)): 0 (0.0) n (%) | Neutropenia, AE of any grade (5.0 mg BID (n = 3)): 0 (0.0) n (%) | Non-cardiac chest pain, AE of any grade (5.0 mg BID (n = 3)): 0 (0.0) n (%) | Pain in extremity, AE of any grade (5.0 mg BID (n = 3)): 0 (0.0) n (%) | Peripheral sensory neuropathy, AE of any grade (5.0 mg BID (n = 3)): 1 (33.3) n (%)
